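Tested at 5 concentrations; 48 h exposure; 96-well plates; endpoints linearly interpolated, else capped at highest concentration. GI50 is the concentration that inhibits growth by half.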 Calls of active or inactive are those of the source. Cut-off read from the data, not from the text of the source: active = GI50 up to about 1.1 µM and inactive = higher.
Legend:
Assay in all cases: inhibition of tumour cell growth, NCI panel, 48 h
[1] = tested on: Malme-3M
[2] = tested on: ACHN
[3] = tested on: SNB-19
[4] = tested on: MDA-MB-231
[5] = tested on: DU-145
[6] = tested on: HCT-116
[7] = tested on: UACC-257
[8] = tested on: HOP-62
[9] = tested on: SK-MEL-2
[10] = tested on: OVCAR-5
[11] = tested on: PC-3
[12] = tested on: OVCAR-3
[13] = tested on: K562
[14] = tested on: IGROV-1
[15] = tested on: KM12
[16] = tested on: NCI-H522
[17] = tested on: TK-10
[18] = tested on: NCI-H23
[19] = tested on: MDA-MB-435
[20] = tested on: OVCAR-4
[21] = tested on: UO-31
[22] = tested on: CAKI-1
[23] = tested on: SK-MEL-5
[24] = tested on: MOLT-4
[25] = tested on: MDA-N
[26] = tested on: HCC 2998
[27] = tested on: SF-539
[28] = tested on: SK-MEL-28
[29] = tested on: OVCAR-8
[30] = tested on: A549
[31] = tested on: SN12C
[32] = tested on: EKVX
[33] = tested on: SNB-75
[34] = tested on: SR
[35] = tested on: HT-29
[36] = tested on: NCI/ADR-RES
[37] = tested on: SK-OV-3
[38] = tested on: T47D
[39] = tested on: CCRF-CEM
[40] = tested on: U-251
[41] = tested on: NCI-H226
[42] = tested on: NCI-H460
[43] = tested on: SF-295
[44] = tested on: RPMI-8226
[45] = tested on: UACC-62
[46] = tested on: A498
[47] = tested on: 786-0
[48] = tested on: LOX IMVI
[49] = tested on: COLO 205
[50] = tested on: HCT-15
[51] = tested on: HL-60
[52] = tested on: Hs-578T
[53] = tested on: M14
[54] = tested on: RXF 393
[55] = tested on: HOP-92
[56] = tested on: SW-620
[57] = tested on: SF-268
[58] = tested on: MCF7
[59] = tested on: BT-549

Compound: CC(C)(C)CC(C)(C)N/C(N)=N/O
- GI50 [1]: > 100 µM (inactive)
- GI50 [2]: 6.71 µM (inactive)
- GI50 [3]: > 100 µM (inactive)
- GI50 [4]: > 100 µM (inactive)
- GI50 [5]: > 100 µM (inactive)
- GI50 [6]: 9.71 µM (inactive)
- GI50 [7]: 41.4 µM (inactive)
- GI50 [8]: > 100 µM (inactive)
- GI50 [9]: > 100 µM (inactive)
- GI50 [10]: > 100 µM (inactive)
- GI50 [11]: 15.1 µM (inactive)
- GI50 [12]: 22.2 µM (inactive)
- GI50 [13]: 28.8 µM (inactive)
- GI50 [14]: > 86.7 µM (inactive)
- GI50 [15]: > 100 µM (inactive)
- GI50 [16]: > 100 µM (inactive)
- GI50 [17]: > 48.5 µM (inactive)
- GI50 [18]: > 91 µM (inactive)
- GI50 [19]: > 100 µM (inactive)
- GI50 [20]: > 37.4 µM (inactive)
- GI50 [21]: > 21.7 µM (inactive)
- GI50 [22]: > 100 µM (inactive)
- GI50 [23]: 51.8 µM (inactive)
- GI50 [24]: > 100 µM (inactive)
- GI50 [25]: > 100 µM (inactive)
- GI50 [26]: > 100 µM (inactive)
- GI50 [27]: > 60.8 µM (inactive)
- GI50 [28]: > 100 µM (inactive)
- GI50 [29]: > 80 µM (inactive)
- GI50 [30]: > 100 µM (inactive)
- GI50 [31]: > 100 µM (inactive)
- GI50 [32]: > 89.5 µM (inactive)
- GI50 [33]: > 86.5 µM (inactive)
- GI50 [34]: > 81.5 µM (inactive)
- GI50 [35]: > 100 µM (inactive)
- GI50 [36]: 97.3 µM (inactive)
- GI50 [37]: 24.1 µM (inactive)
- GI50 [38]: > 32.7 µM (inactive)
- GI50 [39]: > 100 µM (inactive)
- GI50 [40]: > 100 µM (inactive)
- GI50 [41]: 58.5 µM (inactive)
- GI50 [42]: > 83.2 µM (inactive)
- GI50 [43]: > 100 µM (inactive)
- GI50 [44]: > 100 µM (inactive)
- GI50 [45]: > 100 µM (inactive)
- GI50 [46]: > 22.6 µM (inactive)
- GI50 [47]: > 100 µM (inactive)
- GI50 [48]: > 100 µM (inactive)
- GI50 [49]: > 100 µM (inactive)
- GI50 [50]: 56.1 µM
- GI50 [51]: > 55.7 µM (inactive)
- GI50 [52]: 15 µM (inactive)
- GI50 [53]: > 100 µM (inactive)
- GI50 [54]: > 100 µM (inactive)
- GI50 [55]: 20.3 µM (inactive)
- GI50 [56]: > 100 µM (inactive)
- GI50 [57]: > 89.3 µM (inactive)
- GI50 [58]: 8.79 µM (inactive)

Compound: Sc1nnc(CNc2ccc(-c3nnc(S)n3-c3ccc(Cl)cc3)cc2)n1-c1ccc(Cl)cc1
- GI50 [1]: 6.58 µM (inactive)
- GI50 [2]: 47.5 µM (inactive)
- GI50 [3]: 26.5 µM (inactive)
- GI50 [4]: 20.2 µM (inactive)
- GI50 [5]: 30.5 µM (inactive)
- GI50 [6]: 15.2 µM (inactive)
- GI50 [7]: 41.2 µM (inactive)
- GI50 [8]: 18.5 µM (inactive)
- GI50 [9]: 22.4 µM (inactive)
- GI50 [10]: 18.1 µM (inactive)
- GI50 [11]: 36 µM (inactive)
- GI50 [13]: 30.8 µM (inactive)
- GI50 [14]: 3.21 µM (inactive)
- GI50 [15]: 18.5 µM (inactive)
- GI50 [16]: 15.2 µM (inactive)
- GI50 [17]: 37.2 µM (inactive)
- GI50 [59]: 34.6 µM (inactive)
- GI50 [18]: 39 µM (inactive)
- GI50 [19]: 28.3 µM (inactive)
- GI50 [20]: 29.5 µM (inactive)
- GI50 [21]: 16.4 µM (inactive)
- GI50 [22]: 19.4 µM (inactive)
- GI50 [23]: 25.1 µM (inactive)
- GI50 [24]: 26.2 µM (inactive)
- GI50 [25]: 26.1 µM (inactive)
- GI50 [26]: 31.2 µM (inactive)
- GI50 [28]: 25.8 µM (inactive)
- GI50 [30]: 31.6 µM (inactive)
- GI50 [31]: 24.2 µM (inactive)
- GI50 [32]: 45.3 µM (inactive)
- GI50 [33]: 39.7 µM (inactive)
- GI50 [35]: 25.3 µM (inactive)
- GI50 [36]: > 100 µM (inactive)
- GI50 [37]: 34.4 µM (inactive)
- GI50 [40]: 37.3 µM (inactive)
- GI50 [41]: 40.7 µM (inactive)
- GI50 [42]: 31.4 µM (inactive)
- GI50 [43]: 26.9 µM (inactive)
- GI50 [44]: 16.7 µM (inactive)
- GI50 [45]: 25.2 µM (inactive)
- GI50 [46]: 55.2 µM (inactive)
- GI50 [47]: 26.9 µM (inactive)
- GI50 [49]: 22.4 µM (inactive)
- GI50 [50]: 48 µM
- GI50 [53]: 25.2 µM (inactive)
- GI50 [54]: 45.4 µM (inactive)
- GI50 [55]: 23.9 µM (inactive)
- GI50 [56]: 35.3 µM (inactive)
- GI50 [57]: 30.3 µM (inactive)
- GI50 [58]: 40.3 µM (inactive)
